Where two headings read alike, the source gives them in different places.

Results on 13 compounds are retold here after US4892871A, “Azido-substituted octopamine agonists and the use thereof to control invertebrate pests” (The General Hospital Corporation, priority 1988, dated 1990).

The subject of series [1] is Light Organ Adenylate Cyclase. As to the kind of experiment: Antagonist inhibition of agonist-stimulated light organ adenylate cyclase. The note with it: for inhibition of compound IV stimulation of adenylate cyclase (in words): stimulation by compound IV; for Ki: read-out: Calculated Ki. The series is classed as biochemical, firefly.
The subject of series [2] is adenylate cyclase. The settings on record: cited from earlier work.
Series [3] concerns octopamine receptor. As to the kind of experiment: In vitro octopamine agonist activity in Manduca. The series is classed as biochemical. From the text: (§1) However, use of formamidines as pest controlling agents gives rise to certain problems, including the fact that the aniline breakdown products are carcinogenic. Moreover, a further problem is that the range of activity of these compounds is limited to a relatively few insect species. Matsumura, F., et al.. Environ. Health Perspect. 14: 71-82 (1976). […] Consistent with this in vitro activity, the formamidines are toxic in Manduca but not in the cockroach.

Series [4] concerns octopamine receptor. In words: In vitro octopamine agonist activity in the cockroach. It is filed as biochemical.
Excerpt: as §1

The subject of series [5] is octopamine receptor protein(s). In words: SDS-polyacrylamide gel autoradiogram of light organ membrane proteins photolabeled with VIII. The series is classed as binding, firefly.
The test system of series [6] is intact firefly light organ. As to the kind of experiment: Light emission after injection into isolated firefly tails. It is filed as in vivo. Here is the method: In the second verification procedure, a bioassay was conducted which measured the effect of tritiated VIII on eliciting light emission when injected into isolated firefly tails.
Series [7] has as its system Manduca larvae. In words: Antifeeding activity, Manduca larvae on sprayed tomato leaves. The settings on record: percentage of leaf area remaining after 72 hours, dim light. It is filed as in vivo.
For series [8], the system named is octopamine receptors. In words: Irreversible activation of adenylate cyclase after photolysis of firefly light organ membranes. It is filed as biochemical. The note with it: photolyzed, washed. From the text:
When exposed to ultraviolet light in these wavelengths, the N3 azido group on the para-position is photolyzed to yield free N2 and a […] covalently with a number of protein sites, including areas with double bonds, amino groups and carboxylic acids. If compound IV is occupying an octopamine receptor at the time of photolysis, then the ligand will bind to a site on or near the receptor protein. […] To determine this, a series of photolysis experiments were performed in which firefly light organ membranes were preincubated with or without compound IV and then photolyzed. Next, the membranes were extensively washed to remove all free ligand and any ligand that was not covalently bound. Following this, adenylate cyclase activity was assayed. […] Presumably, the excess octopamine displaced compound IV so that, when the membranes were later photolyzed, octopamine (and not compound IV) was occupying the receptor. Subsequently, during washing, the octopamine was removed so that the receptor returned to its unstimulated state.

Series [9] deals with octopamine-sensitive adenylate cyclase. As to the kind of experiment: Activation of adenylate cyclase in firefly light organ membrane (broken cell) preparations. The series is classed as biochemical, Photinus pyralis. The settings on record: for Ka (concentration necessary for half-maximal activation of cyclase activity): firefly light organ membranes, reversible conditions. Here is the method: The question of whether a given azido-substituted compound within the scope of the invention is an octopamine agonist can be readily answered by measuring adenylate cyclase activity of the octopamine-sensitive adenylate cyclase present in broken cell preparations of the firefly light organ. […] Specimens of Photinus pyralis are prepared by opening their tail sections, cleaning them, removing the light organs, and homogenizing the cyclase-containing fraction. Adenylate cyclase activity is measured in appropriate buffer-containing ATP, cofactors, and the compound to be tested. Normally, the solution mixture contains a phosphodiesterase inhibitor such as theophylline, and the assay is designed to provide linear measurements with respect to time and enzyme concentration. If necessary, the compounds to be tested are initially solubilized and appropriate solvent controls are run in parallel. The enzyme reaction is initiated by addition of ATP, stopped by heating, and centrifuged. Cyclic AMP can be measured by any test which indicates the presence thereof, preferably by the protein binding assay of Brown et al. (Advances in Cyclic Nucleotide Research 2:25-40 (1972)). The determination of the constant Ka, which is the concentration of the azido-substituted agonist necessary for half-maximal activation of cyclase activity, is carried out by measuring cyclase activity in the preparation, and plotting the activity (above control activity) versus the semilogarithm of the particular agonist concentration. This is done for a series of increasing concentrations until maximal activity (Vmax) is reached. Ka^(Azido) is then calculated from the graph as the agonist concentration required for one-half of Vmax. Ka^(Azido) is compared with the constant (Ka^oct) determined in an analogous way using ±p-octopamine as the agonist. The ratio Ka^oct /ka^(Azido) is then an indication of whether a particular azido-substituted agonist (Azido) is more (ratio greater than 1) or less (ratio smaller than 1) active than (±)-p-octopamine (oct). […]

Series [10] has as its system octopamine receptor. In words: Reversible binding of compound VIII to light organ membranes (filtration). More on the design: species or system firefly. From the text:
The low affinity of octopamine for its receptor (Ka =30 micromolar) results in a half-time of dissociation of considerably less than 0.1 second. This precludes the use of labeled octopamine as a receptor ligand since the time required for the separation of free from bound ligand during a filtration assay is several seconds. […] In other words, following washing, enough ligand will still be on the receptor to allow estimation of the receptor's binding constant for compound IV. (Because there will still be significant loss of label during filtration, one cannot use this type of assay to estimate total receptor number).

In series [11] the test system is octopamine receptors. In words: Irreversible (UV) binding of compound VIII to firefly light organ membranes and displacement. The note with it: for displacement of irreversible VIII binding (in words): other experiments, nonoctopaminergic compounds. Here is the method: In these experiments, membranes were preincubated with the probe for under various conditions and then the mixture was photolyzed in quartz microcuvettes using a UV-C germicidal lamp. […] To determine whether the binding was specific, various displacing agents were added during the preincubation with tritiated IV (VIII), and the mixture then photolyzed.

For series [12], the system named is octopamine receptors. As to the kind of experiment: Autoradiography of intact isolated firefly light organs labeled with VIII. Here is the method:
Because compound VIII binds irreversibly, it should have potential as an anatomic probe to […] localize octopamine receptors at the light microscopic level. To determine if this is feasible, some preliminary studies were conducted using intact isolated firefly light organs. The lanterns were first preincubated with VIII in dim light and then exposed either to no light or to intense UV. Following this step, the lanterns were extensively washed, then slide mounted, dehydrated, and exposed to tritium-sensitive X-ray film. […] In the absence of UV light, there was no labeling. Localization of octopamine receptors, particularly in the nervous system, should aid in an understanding of how octopamine exerts its behavioral effects in insects.

As for `CN1CCC(=C2c3ccccc3C=Cc3ccccc32)CC1` [Cyproheptadine, cyproheptadine], the “inhibition of compound IV stimulation of adenylate cyclase (in words)” value (from here on “inhibition”) in series [1] is “inhibited”.

Consider `CNC=Nc1ccc(Cl)cc1C` [DCDM, N-demethylchlordimeform], for which, in series [2], the “agonist character in adenylate cyclase stimulation” value is on record as “partial agonist” and the “potency relative to octopamine in adenylate cyclase stimulation” value was “about six”.

With `Cc1cc(Cl)ccc1N=CN` [DDCDM, didemethylchlordimeform], in [3], the agonist character result is listed as “full agonist” and the “potency relative to octopamine” value is reported as 20 fold. Further, in [4], the agonist character result is “very weak and partial agonist”.

As for `CN1CCN2c3ccccc3Cc3ccccc3C2C1` (centres unmarked) [Mianserin, mianserin], in series [1], the “inhibition” value is “inhibited”. Besides, the “effect on VIII labeling of the protein peak at MW 74,000” value in series [5] (excess antagonist present during photolysis) is recorded as “completely blocked”.

Consider `Cc1ccc(N(CC2=NCCN2)c2cccc(O)c2)cc1` [Phentolamine, phentolamine], for which the Ki (commonly the equilibrium dissociation constant of an inhibitor or competing ligand from its target) in series [1] (inhibiting stimulation by DCDM (a formamidine)) is 18 µM; in series [1] (inhibiting stimulation by compound IV) it was 20 µM; in series [1] (inhibiting stimulation by octopamine (OCT)), 46 µM. Also, the “inhibition” value in series [1] is given as “inhibited”.

Take `CC(C)NCC(O)COc1cccc2ccccc12` (centres unmarked) [Propranolol, propranolol]: the “inhibition” value in [1] is listed as “less potent”.

In the case of `CCc1cc(N=[N+]=[N-])cc(CC)c1N=C1NCCN1` [compound IV, (4-azido-2,6-diethylphenyl)imino-2-imidazoline], the “potency relative to octopamine in stimulating light emission” value in series [6] (injected into isolated firefly tails) is listed as “about 15 fold”. The “potency relative to octopamine in inhibiting feeding” value in [7] is “about 10 fold”. Besides, the “increase in adenylate cyclase activity after prior photolysis and washing” value in series [8] (membranes preincubated with compound) is 3 fold.

With `[3H]c1c(CC)c(N=C2NCCN2)c(CC)c([3H])c1N=[N+]=[N-]` [compound VIII, 2-(4-azido-2,6-diethyl-3,5-ditritiophenyl)imino-2-imidazoline], the “Ka (concentration necessary for half-maximal activation of cyclase activity)” value in series [9] is “about 0.5 micromolar”. The “adenylate cyclase activity profile compared with unlabeled IV” value in series [9] (light organ membranes) is listed as “virtually identical”. The “light response compared with genuine unlabeled compound” value in series [6] (injection of 0.5 nmoles into isolated firefly tails) is given as “identical”. For the same compound, the “concentration at which specific binding saturates” value in series [10] (specific binding = absence minus presence of 1000-fold excess mianserin) is given as “about 2 micromolar”. The Kd in series [10] (specific binding, light organ membranes, read-out: concentration at which 50% binding occurs) was roughly 0.8 µM. Besides, in series [11] (photolyzed vs no UV), the “increase in amount of label permanently bound on exposure to UV light” value stood at 14 fold. Also, the “labeling of the lantern” value in series [12] (absence of UV light) is given as “no labeling”; in series [12] (exposed to intense UV), “marked labeling”. Besides, the “proteins labeled on gel” value in series [5] (absence of UV radiation (lane C)) is recorded as “no proteins were labeled”; in [5] (photolyzed with UV (lane A)), “Four major labeled peaks”.

In the case of `NCCc1ccc(O)c(O)c1` [dopamine], the “displacement of irreversible VIII binding (in words)” value (“displacement” for short) in series [11] is reported as “not displaced”.

In the case of `NCCc1c[nH]cn1` [histamine], in series [11], the “displacement” value is reported as “not displaced”.

On to `NC[C@H](O)c1ccc(O)c(O)c1` [norepinephrine], for which the “displacement” value in [11] is recorded as “not displaced”.

Regarding `NCC(O)c1ccc(O)cc1` (centres unmarked) [octopamine], the “Ka (concentration necessary for half-maximal activation of cyclase activity)” value in [9] came out at 30 µM. In [8], the “irreversible activation after preincubation with compound alone” value is listed as “failed to cause any irreversible activation”.

As to `NCCc1c[nH]c2ccc(O)cc12` [serotonin], the “displacement” value in series [11] was “not displaced”.
